Data from ChEMBL document CHEMBL4813920, “Metronidazole-conjugates: A comprehensive review of recent developments towards synthesis and medicinal perspective” (Eur J Med Chem, 2021).
Values after ≈ are worked out from the molar mass of the structure shown.

Columns and labels:
Leishmania braziliensis = test: Antileishmanial activity against promastigote form of Leishmania braziliensis MHOM/BR/75/M2903 measured for 7 days by cell counting method; type: functional; details: MHOM/BR/75/M2903, 168 h, time 7 day
Leishmania mexicana = test: Antileishmanial activity against promastigote form of Leishmania mexicana MHOM/BZ/82/Bel21 measured for 7 days by cell counting method; type: functional; details: MHOM/BZ/82/Bel21, 168 h, time 7 day
MDA-MB-231 = test: Antiproliferative activity against human MDA-MB-231 cells after 24 hrs by MTT assay; type: functional, cell-based; details: MDA-MB-231, 24 h
HEK293 = test: Cytotoxicity against HEK293 cells after 24 hrs by MTT assay; type: cell-based; details: Homo sapiens, HEK293, 24 h
MCF7 [1] = test: cells; details: Homo sapiens, MCF7, 24 h
Carbonic anhydrase 2 = Carbonic anhydrase 2 (Homo sapiens, UniProt P00918); test: Inhibition of recombinant human carbonic anhydrase 2 preincubated with enzyme for 15 mins by phenol red dye based stopped flow CO2 hydration assay
Carbonic anhydrase 9 = Carbonic anhydrase 9 (Homo sapiens, UniProt Q16790); test: Inhibition of recombinant human carbonic anhydrase 9 preincubated with enzyme for 15 mins by phenol red dye based stopped flow CO2 hydration assay
[2] = Inhibition of Escherichia coli N-terminal His-tagged FabH expressed in Escherichia coli BL21(DE3) by liquid scintillation counting method
Escherichia coli [3] = test: Antibacterial activity against Escherichia coli ATCC 35218 incubated for 24 hrs by two fold serial dilution method; type: functional
Pseudomonas aeruginosa [4] = test: Antibacterial activity against Pseudomonas aeruginosa ATCC 13525 incubated for 24 hrs by two fold serial dilution method; type: functional
Bacillus spizizenii [5] = test: Antibacterial activity against Bacillus subtilis ATCC 6633 incubated for 24 hrs by two fold serial dilution method; type: functional
Staphylococcus aureus [6] = test: Antibacterial activity against Staphylococcus aureus ATCC 6538 incubated for 24 hrs by two fold serial dilution method; type: functional
[7] = Acute oral toxicity in mouse assessed as induction of mortality measured once daily for 14 days; details: in vivo, time 14 day
[8] = Acute oral toxicity in mouse assessed as signs of gross toxicity measured once daily for 14 days; details: in vivo, time 14 day
[9] = Acute oral toxicity in mouse assessed as behavioral changes measured once daily for 14 days; details: in vivo, time 14 day
Helicobacter pylori [10] = test: Antibacterial activity against Helicobacter pylori ATCC 26695 incubated for 48 hrs by MTT assay; type: functional, organism-based
Helicobacter pylori [11] = test: Antibacterial activity against Helicobacter pylori P12 incubated for 48 hrs by MTT assay; type: functional, organism-based
Clostridium perfringens = test: Antibacterial activity against Clostridium perfringens ATCC 13124 incubated for 48 hrs under anaerobic condition by MTT assay; type: functional
Helicobacter pylori [12] = test: Antimicrobial activity against Helicobacter pylori ATCC 43504 incubated for 3 days by agar dilution method; type: functional; details: NCTC 11637 = CCUG 17874 = ATCC 43504, 72 h, time 3 day
Helicobacter pylori [13] = test: Antimicrobial activity against Helicobacter pylori SS1 incubated for 3 days by agar dilution method; type: functional; details: SS1, 72 h, time 3 day
Helicobacter pylori [14] = test: Antimicrobial activity against Helicobacter pylori SS1 clinical isolate2 for 3 days by agar dilution method; type: functional; details: SS1 clinical isolate2, 72 h, time 3 day
Helicobacter pylori [15] = test: Antimicrobial activity against Helicobacter pylori clinical isolate3 for 3 days by agar dilution method; type: functional; details: clinical isolate3, 72 h, time 3 day
Helicobacter pylori [16] = test: Antimicrobial activity against Helicobacter pylori clinical isolate1 for 3 days by agar dilution method; type: functional; details: clinical isolate1, 72 h, time 3 day
Helicobacter pylori [17] = test: Antimicrobial activity against Helicobacter pylori clinical isolate4 for 3 days by agar dilution method; type: functional; details: clinical isolate4, 72 h, time 3 day
Bacillus spizizenii [18] = test: Antibacterial activity against Bacillus subtilis ATCC 6633 by MH media dilution method; type: functional
Escherichia coli [19] = test: Antibacterial activity against Escherichia coli ATCC 35218 by MH media dilution method; type: functional
Pseudomonas aeruginosa [20] = test: Antibacterial activity against Pseudomonas aeruginosa ATCC 13525 by MH media dilution method; type: functional
Staphylococcus aureus [21] = test: Antibacterial activity against Staphylococcus aureus ATCC 6538 by MH media dilution method; type: functional
HepG2 [22] = test: cells; details: Homo sapiens, HepG2, 48 h
HeLa [23] = test: cells; details: Homo sapiens, 48 h
MCF7 [24] = test: cells; details: Homo sapiens, MCF7, 48 h
A549 [25] = test: cells; details: Homo sapiens, A549, 48 h
Candida parapsilosis = test: Antimicrobial activity against Candida parapsilosis ATCC 22019; type: functional; details: Lodderomyces parapsilosis
Candida albicans = test: Antimicrobial activity against Candida albicans ATCC 90023; type: functional
Escherichia coli [26] = test: Antibacterial activity against Escherichia coli by microbroth dilution method; type: functional
Enterococcus faecalis = test: Antibacterial activity against Enterococcus faecalis by microbroth dilution method; type: functional
Pseudomonas aeruginosa [27] = test: Antibacterial activity against Pseudomonas aeruginosa ATCC 27853 by microbroth dilution method; type: functional
Acinetobacter baumannii = test: Antibacterial activity against Acinetobacter baumannii by microbroth dilution method; type: functional
Giardia intestinalis = test: Antigiardial activity against Giardia intestinalis MSS:0696:1 incubated for 48 hrs; type: functional, organism-based; details: Giardia duodenalis, MSS:0696:1, 48 h
Trichomonas vaginalis = test: Anti-trichomonas activity against Trichomonas vaginalis GT3 incubated for 48 hrs; type: functional, organism-based; details: GT3, 48 h
[28] = Selectivity index, ratio of CC50 for African green monkey Vero cells to IC50 for antigiardial activity against Giardia intestinalis MSS:0696:1; type: toxicity; details: read-out: Ratio CC50/IC50
[29] = Selectivity index, ratio of CC50 for African green monkey Vero cells to IC50 for antigiardial activity against Trichomonas vaginalis GT3; type: toxicity; details: read-out: Ratio CC50/IC50
U-251 = test: Antiproliferative activity against human U-251 cells incubated for 24 to 48 hrs by CCK8 assay; type: functional, cell-based
HeLa [30] = test: Antiproliferative activity against human Hela cells incubated for 24 to 48 hrs by CCK8 assay; type: functional, cell-based
HepG2 [31] = test: Antiproliferative activity against human HepG2 cells incubated for 24 to 48 hrs by CCK8 assay; type: functional, cell-based
A549 [32] = test: Antiproliferative activity against human A549 cells incubated for 24 to 48 hrs by CCK8 assay; type: functional, cell-based

`Cc1ncc([N+](=O)[O-])n1CCSCO` showed an LC50 (Leishmania braziliensis) of 950 µM and an LC50 (Leishmania mexicana) of 2250 µM.
With `Cc1ncc([N+](=O)[O-])n1Cc1cn(CCCCCN2C(=O)C(=O)c3cc(F)ccc32)nn1` the IC50 (MDA-MB-231) was 56.2 µM, the IC50 (HEK293) was > 100 µM and the IC50 (MCF7 [1]) was 70.7 µM.
Compound `Cc1ncc([N+](=O)[O-])n1CCOc1ccc(/C=N\c2ccc(S(=O)(=O)NC(=N)N)cc2)cc1` has an IC50 (Carbonic anhydrase 2) of 0.07 µM and an IC50 (Carbonic anhydrase 9) of 0.135 µM.
`Cc1ccnc(NS(=O)(=O)c2ccc(/N=C/c3ccc(C(=O)OCCn4c([N+](=O)[O-])cnc4C)cc3)cc2)n1` gave an IC50 [2] of 5.59 µM, an MIC (Escherichia coli [3]) of 3.13 µg/mL (≈ 5.7 µM) and an MIC (Pseudomonas aeruginosa [4]) of 12.5 µg/mL (≈ 22.7 µM). The MIC (Bacillus spizizenii [5]) was 6.25 µg/mL (≈ 11.4 µM), the MIC (Staphylococcus aureus [6]) was 12.5 µg/mL (≈ 22.7 µM) and the LD50 at 336 h [7] was > 5000 mg/kg. The LD50 at 336 h [8] was > 5000 mg/kg and the LD50 at 336 h [9] was > 5000 mg/kg.
Work on `Cc1ccc(C(C)C)cc1OC(=O)Cn1c([N+](=O)[O-])cnc1C` yielded an IC50 (Helicobacter pylori [10]) of 52.35 uM/ml, an IC50 (Helicobacter pylori [11]) of 35.17 uM/ml and an MIC (Clostridium perfringens) of 0.0094 µM (≈ 0.00298 µg/mL).
Compound `Cc1ncc([N+](=O)[O-])n1CCOc1ccc(/C=N\c2ccc(S(=O)(=O)Nc3nccs3)cc2)cc1` has an IC50 (Carbonic anhydrase 2) of 0.016 µM and an IC50 (Carbonic anhydrase 9) of 0.093 µM.
With `Cc1cc(C)nc(NS(=O)(=O)c2ccc(/N=C/c3ccc(C(=O)OCCn4c([N+](=O)[O-])cnc4C)cc3)cc2)n1` the IC50 [2] was 2.69 µM, the MIC (Escherichia coli [3]) was 1.56 µg/mL (≈ 2.77 µM) and the MIC (Pseudomonas aeruginosa [4]) was 3.13 µg/mL (≈ 5.55 µM). For the same compound, the MIC (Bacillus spizizenii [5]) was 1.56 µg/mL (≈ 2.77 µM), the MIC (Staphylococcus aureus [6]) was 3.13 µg/mL (≈ 5.55 µM) and the LD50 at 336 h [7] was > 5000 mg/kg. The LD50 at 336 h [8] was > 5000 mg/kg and the LD50 at 336 h [9] was > 5000 mg/kg.
For `Cc1cc(NNS(=O)(=O)c2ccc(/N=C\c3ccc(OCCn4c([N+](=O)[O-])cnc4C)cc3)cc2)no1`, the IC50 (Carbonic anhydrase 2) was 0.033 µM and the IC50 (Carbonic anhydrase 9) was 0.112 µM.
Compound `Cc1ncc([N+](=O)[O-])n1CCOc1ccc(C(=O)Cc2ccc([N+](=O)[O-])cc2)c(O)c1O` has an MIC (Helicobacter pylori [12]) of 1.76 µM (≈ 0.779 µg/mL), an MIC (Helicobacter pylori [13]) of 1.76 µM (≈ 0.779 µg/mL) and an MIC (Helicobacter pylori [14]) of 0.88 µM (≈ 0.389 µg/mL). The MIC (Helicobacter pylori [15]) was 1.76 µM (≈ 0.779 µg/mL), the MIC (Helicobacter pylori [16]) was 1.76 µM (≈ 0.779 µg/mL) and the MIC (Helicobacter pylori [17]) was 1.76 µM (≈ 0.779 µg/mL).
For `CC1(C)S[C@@H]2[C@H](NC(=O)[C@H](N)c3ccc(O)cc3)C(=O)N2[C@H]1C(=O)O` [AMOXICILLIN], the MIC (Helicobacter pylori [12]) was 0.14 µM (≈ 0.0512 µg/mL), the MIC (Helicobacter pylori [13]) was 0.14 µM (≈ 0.0512 µg/mL) and the MIC (Helicobacter pylori [14]) was 1.07 µM (≈ 0.391 µg/mL). It also gave an MIC (Helicobacter pylori [15]) of 1.07 µM (≈ 0.391 µg/mL), an MIC (Helicobacter pylori [16]) of 1.07 µM (≈ 0.391 µg/mL) and an MIC (Helicobacter pylori [17]) of 1.07 µM (≈ 0.391 µg/mL).
Work on `O=C(N[C@H](CO)[C@H](O)c1ccc([N+](=O)[O-])cc1)C(Cl)Cl` [CHLORAMPHENICOL] yielded an MIC (Bacillus spizizenii [18]) of 3.91 µg/mL (≈ 12.1 µM), an MIC (Escherichia coli [19]) of 3.91 µg/mL (≈ 12.1 µM) and an MIC (Pseudomonas aeruginosa [20]) of 0.98 µg/mL (≈ 3.03 µM). For the same compound, the MIC (Staphylococcus aureus [21]) was 3.91 µg/mL (≈ 12.1 µM).
`COc1cc2c(c(OC)c1OC)-c1ccc(OC)c(=O)cc1[C@@H](NC(C)=O)CC2` [COLCHICINE] gave an IC50 (HepG2 [22]) of 0.045 µM, an IC50 (HeLa [23]) of 0.055 µM and an IC50 (MCF7 [24]) of 0.038 µM. It also gave an IC50 (A549 [25]) of 0.037 µM.
Compound `OC(Cn1cncn1)(Cn1cncn1)c1ccc(F)cc1F` [FLUCONAZOLE] has an MIC (Candida parapsilosis) of 156 µM (≈ 47.8 µg/mL) and an MIC (Candida albicans) of 156 µM (≈ 47.8 µg/mL).
`CCn1cc(C(=O)O)c(=O)c2cc(F)c(N3CCNCC3)cc21` [NORFLOXACIN] gave an MIC (Escherichia coli [26]) of 1600 µM (≈ 513 µg/mL), an MIC (Enterococcus faecalis) of 803 µM (≈ 256 µg/mL) and an MIC (Pseudomonas aeruginosa [27]) of 1600 µM (≈ 513 µg/mL). For the same compound, the MIC (Acinetobacter baumannii) was 803 µM (≈ 256 µg/mL).
With `CC1(C)S[C@@H]2[C@H](NC(=O)Cc3ccccc3)C(=O)N2[C@H]1C(=O)O` [PENICILLIN G] the MIC (Bacillus spizizenii [18]) was 0.98 µg/mL (≈ 2.93 µM), the MIC (Escherichia coli [19]) was 7.82 µg/mL (≈ 23.4 µM) and the MIC (Pseudomonas aeruginosa [20]) was 7.82 µg/mL (≈ 23.4 µM). It also gave an MIC (Escherichia coli [3]) of 3.13 µg/mL (≈ 9.36 µM), an MIC (Pseudomonas aeruginosa [4]) of 6.25 µg/mL (≈ 18.7 µM) and an MIC (Bacillus spizizenii [5]) of 1.56 µg/mL (≈ 4.67 µM). It also gave an MIC (Staphylococcus aureus [6]) of 6.25 µg/mL (≈ 18.7 µM) and an MIC (Staphylococcus aureus [21]) of 1.96 µg/mL (≈ 5.86 µM).
`CC1=CC(=O)c2c(O)cccc2C1=O` [PLUMBAGIN] showed an IC50 (MDA-MB-231) of 4.4 µM.
With `Cc1ncc([N+](=O)[O-])n1CC(C)O` (stereo not drawn) [SECNIDAZOLE] the IC50 (Giardia intestinalis) was 4.41 µM, the IC50 (Trichomonas vaginalis) was 13.5 µM and the selectivity ratio [28] was > 24. The selectivity ratio [29] was > 7.
Compound `C[C@@H]1CCN(C(=O)CC#N)C[C@@H]1N(C)c1ncnc2[nH]ccc12` [TOFACITINIB] has an IC50 (U-251) of 0.33 µM, an IC50 (HeLa [30]) of 0.04 µM and an IC50 (HepG2 [31]) of 0.11 µM. The IC50 (A549 [32]) was 0.1 µM.
